Test results as given in US20230203041A1, “ANTAGONISTS OF THE ADENOSINE A2A RECEPTOR” (AdoRx Therapeutics Limited, priority 2020, published 2023).

Key:
[1] = molecular target: T1, human Adenosine A1 receptor (Homo sapiens, UniProt P30542); assay: Adenosine receptor TR-FRET binding assay (CA200645 displacement), A1
T1 sequence (P30542 1-326): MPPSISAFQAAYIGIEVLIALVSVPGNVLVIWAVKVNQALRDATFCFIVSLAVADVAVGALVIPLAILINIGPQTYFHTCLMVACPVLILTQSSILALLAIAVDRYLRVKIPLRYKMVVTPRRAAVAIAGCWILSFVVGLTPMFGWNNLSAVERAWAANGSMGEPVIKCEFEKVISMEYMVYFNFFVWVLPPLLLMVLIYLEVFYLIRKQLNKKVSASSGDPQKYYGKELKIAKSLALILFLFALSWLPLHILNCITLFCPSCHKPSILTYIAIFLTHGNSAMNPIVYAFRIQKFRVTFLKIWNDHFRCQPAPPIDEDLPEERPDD

human PBMCs = assay: CD3/CD28 stimulated IL-2 release NECA reversal assay in human PBMCs; type: cell-based; conditions: PBMC, CD3/CD28 antibody stimulated, 1 uM NECA, 24 hours, IL-2 in culture supernatant;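 also: dose-response as % inhibition where 100% equals no-NECA control wells with CD3/CD28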
Summary of the method: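 PBMCs from citrated donor blood, 50,000 cells/well on plate-bound CD3 antibody (1 ug/ml), with 1 ug/ml CD28 antibody, 1 uM NECA and antagonist at 0.003-10 μM final. After 24 h at 37° C, supernatant IL-2 was measured by MSD immunoassay.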

[2] = molecular target: T2, human Adenosine A3 receptor (Homo sapiens, UniProt P0DMS8); assay: Adenosine receptor TR-FRET binding assay (CA200645 displacement), A3
T2 sequence (P0DMS8 1-318): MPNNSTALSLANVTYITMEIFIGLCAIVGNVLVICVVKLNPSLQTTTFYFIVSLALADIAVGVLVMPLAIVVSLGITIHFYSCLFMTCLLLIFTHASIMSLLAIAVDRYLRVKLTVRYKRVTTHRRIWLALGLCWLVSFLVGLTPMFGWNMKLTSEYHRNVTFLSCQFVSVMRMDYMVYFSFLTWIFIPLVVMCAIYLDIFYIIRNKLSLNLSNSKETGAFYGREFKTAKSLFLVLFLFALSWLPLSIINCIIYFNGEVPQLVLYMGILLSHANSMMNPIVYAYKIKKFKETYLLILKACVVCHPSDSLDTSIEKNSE

[3] = molecular target: T3, human Adenosine A2b receptor (Homo sapiens, UniProt P29275); assay: Adenosine receptor TR-FRET binding assay (CA200645 displacement), A2b; conditions: 30 nM CA200645, CHO cell membranes, 2 hours at room temperature
T3 construct: expressed in transfected cells; host or cells: CHO cell membranes
T3 sequence (P29275 1-332): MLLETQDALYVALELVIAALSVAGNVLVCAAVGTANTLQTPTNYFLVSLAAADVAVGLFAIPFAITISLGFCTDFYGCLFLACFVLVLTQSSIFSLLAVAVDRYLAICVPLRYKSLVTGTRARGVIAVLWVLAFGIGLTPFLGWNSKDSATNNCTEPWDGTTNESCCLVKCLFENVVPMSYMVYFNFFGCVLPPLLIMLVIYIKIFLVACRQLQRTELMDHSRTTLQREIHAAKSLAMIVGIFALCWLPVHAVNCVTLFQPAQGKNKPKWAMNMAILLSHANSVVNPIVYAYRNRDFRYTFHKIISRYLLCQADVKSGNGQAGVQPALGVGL

[4] = system: CD8+ T cells in human whole blood; assay: Measurement of pCREB in CD8+ T cells in human whole blood; type: cell-based; conditions: T-cell, 1 h; heparinised human whole blood, rolipram, 3 μM NECA, 60 min, phospho-CREB in CD8+ T cells by FACS
Summary of the method: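 Heparinised human whole blood preincubated 20 min at 37 °C with serially diluted A2a antagonists plus rolipram, then stimulated 60 min with 3 μM NECA (final). After fixation and RBC lysis, permeabilized leukocytes stained for phospho-CREB and CD8; pCREB in CD8+ T cells read by flow cytometry.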

[5] = molecular target: T4, human Adenosine A2a receptor (Homo sapiens, UniProt P29274); assay: Adenosine receptor TR-FRET binding assay (CA200645 displacement), A2a; conditions: 100 nM CA200645, CHO cell membranes, 2 hours at room temperature
T4 construct: expressed in transfected cells; host or cells: CHO cell membranes
T4 sequence (P29274 whole entry): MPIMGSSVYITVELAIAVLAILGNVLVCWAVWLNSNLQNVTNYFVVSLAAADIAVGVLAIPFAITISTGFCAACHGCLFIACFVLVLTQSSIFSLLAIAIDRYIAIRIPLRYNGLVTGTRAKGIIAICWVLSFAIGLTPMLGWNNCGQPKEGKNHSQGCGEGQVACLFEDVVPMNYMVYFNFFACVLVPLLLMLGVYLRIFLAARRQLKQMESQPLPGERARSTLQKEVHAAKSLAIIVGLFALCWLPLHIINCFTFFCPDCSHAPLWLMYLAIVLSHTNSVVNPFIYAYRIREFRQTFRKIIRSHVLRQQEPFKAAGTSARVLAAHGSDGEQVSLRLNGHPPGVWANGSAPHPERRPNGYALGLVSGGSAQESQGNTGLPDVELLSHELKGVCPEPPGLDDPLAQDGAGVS

SMILES | Ki [1] [nM] | Ki [2] [nM] | Ki [3] [nM] | IC50 [4] [nM] | Ki [5] [nM] | IC50 (human PBMCs) [nM]
Cc1cc(-c2c(-c3cccc(C#N)c3)nn3ccc(NCCC(C)(C)O)nc23)cc(Cl)n1 [Example 2.9] | 31 | > 1000 | 19 | 70 | 1.4 | 19
Cc1cc(-c2c(-c3cccc(C#N)c3)nn3ccc(NCC(C)(C)O)nc23)cc(Cl)n1 [Example 2, 3-[3-(2-Chloro-6-methyl-4-pyridyl)-5-[(2-hydroxy-2-methyl-propyl)amino]pyrazolo[1,5-a]pyrimidin-2-yl]benzonitrile] | 366 | > 1000 | 67 | 420 | 3.9 | 84
COc1cc(-c2c(-c3cccc(C#N)c3)nn3ccc(C(=O)NCC(C)(C)O)nc23)cc(C)n1 [Example 12.6, 2-(3-Cyanophenyl)-N-(2-hydroxy-2-methyl-propyl)-3-(2-methoxy-6-methyl-4-pyridyl)pyrazolo[1,5-a]pyrimidine-5-carboxamide] | 251 | 690 | 75 | 370 | 1 | 9
Cc1cc(-c2c(-c3cccc(C#N)c3)nn3ccc(NC45CC(O)(C4)C5)nc23)cc(Cl)n1 [Example 2.1] | 21 | > 1000 | 3 | 1440 | 0.4 | 12
Cc1cc(-c2c(-c3cccc(C#N)c3)nn3ccc(C(=O)N[C@H]4CC[C@H](N)C4)nc23)cc(Cl)n1 [Example 7.14, 3-(2-Chloro-6-methyl-4-pyridyl)-2-(3-cyanophenyl)-N-[(1S,3S)-3-aminocyclopentyl]pyrazolo[1,5-a]pyrimidine-5-carboxamide] | 249 | > 1000 | 32 | 1930 | 2.8 | 142
Cc1cc(-c2c(-c3cccc(C#N)c3)nn3ccc(C(=O)NCC(C)(O)CO)nc23)cc(Cl)n1 (stereo not drawn) [Example 6.9, 3-(2-Chloro-6-methyl-4-pyridyl)-2-(3-cyanophenyl)-N-(2,3-dihydroxy-2-methyl-propyl)pyrazolo[1,5-a]pyrimidine-5-carboxamide] | 232 | > 1000 | 2 | 160 | 0.9 | 10
Cc1cc(-c2c(-c3cccc(C#N)c3)nn3ccc(C(=O)NC[C@H](O)CO)nc23)cc(Cl)n1 [Example 6.13, 3-(2-Chloro-6-methyl-4-pyridyl)-2-(3-cyanophenyl)-N-[(2S)-2,3-dihydroxypropyl]pyrazolo[1,5-a]pyrimidine-5-carboxamide] | 424 | > 1000 | 17 | 390 | 1.7 | 32
Cc1cc(-c2c(-c3cccc(C#N)c3)nn3ccc(NCC4(O)CC4)nc23)cc(Cl)n1 [Example 3.4] | 56 | 2450 | 2 | 260 | 0.4 | 100
Cc1cc(-c2c(-c3cccc(C#N)c3)nn3ccc(C(=O)NC45CC(O)(C4)C5)nc23)cc(Cl)n1 [Example 5, 3-(2-Chloro-6-methyl-4-pyridyl)-2-(3-cyanophenyl)-N-(3-hydroxy-1-bicyclo[1.1.1]pentanyl)pyrazolo[1,5-a]pyrimidine-5-carboxamide] | 296 | > 1000 | 9 | 1820 | 0.8 | 23
Cc1cc(-c2c(-c3cccc(C#N)c3)nn3ccc(N)nc23)cc(Cl)n1 [Example 1.4, 3-[5-Amino-3-(2-chloro-6-methyl-4-pyridyl)pyrazolo[1,5-a]pyrimidin-2-yl]benzonitrile] | 66 | > 1000 | 4 | 590 | 2.6 | 37

Now from value to compound, other results behind:

Ki [1] [nM] | Ki [2] [nM] | Ki [3] [nM] | IC50 [4] [nM] | Ki [5] [nM] | SMILES | IC50 (human PBMCs) [nM]
17 | 2360 | 2 | 460 | 1.5 | Cc1cc(-c2c(-c3cccc(C#N)c3)nn3ccc(N)nc23)cc(C(F)F)n1 [Example 26.1, 3-[5-Amino-3-[2-(difluoromethyl)-6-methyl-4-pyridyl]pyrazolo[1,5-a]pyrimidin-2-yl]benzonitrile] | 32
29 | > 1000 | 5 | 490 | 0.8 | Cc1cc(-c2c(-c3cccc(C#N)c3)nn3ccc(N/C(=N\C#N)NCC(C)(C)O)nc23)cc(Cl)n1 [Example 32.2, 1-[3-(2-Chloro-6-methyl-4-pyridyl)-2-(3-cyanophenyl)pyrazolo[1,5-a]pyrimidin-5-yl]-2-cyano-3-(2-hydroxy-2-methyl-propyl)quanidine] | 16
46 | 1920 | 9 | 380 | 1.2 | Cc1cc(-c2c(-c3cccc(C#N)c3)nn3ccc(OCC(C)(C)O)nc23)cc(Cl)n1 [Example 15, 3-[3-(2-Chloro-6-methyl-4-pyridyl)-5-(2-hydroxy-2-methyl-propoxy)pyrazolo[1,5-a]pyrimidin-2-yl]benzonitrile] | 2
692 | > 1000 | 50 | 890 | 8 | CC(=O)N1CCC(Nc2ccn3nc(-c4cccc(C#N)c4)c(-c4cc(C)nc(C)c4)c3n2)CC1 [Example 105.1, 3-[5-[(1-Acetyl-4-piperidyl)amino]-3-(2,6-dimethyl-4-pyridyl)pyrazolo[1,5-a]pyrimidin-2-yl]benzonitrile] | 33
87 | 655 | 9 | 360 | 0.4 | CC(=O)NC(C)(C)CNC(=O)c1ccn2nc(-c3cccc(C#N)c3)c(-c3cc(C)nc(Cl)c3)c2n1 [Example 98, N-(2-Acetamido-2-methyl-propyl)-3-(2-chloro-6-methyl-4-pyridyl)-2-(3-cyanophenyl)pyrazolo[1,5-a]pyrimidine-5-carboxamide] | 3
143 | > 1000 | 7 | 360 | 0.5 | Cc1cc(-c2c(-c3cccc(C#N)c3)nn3ccc(C(=O)NCCC(C)(C)N)nc23)cc(C)n1 [Example 96, N-(3-Amino-3-methyl-butyl)-2-(3-cyanophenyl)-3-(2,6-dimethyl-4-pyridyl)pyrazolo[1,5-a]pyrimidine-5-carboxamide] | 10
260 | > 1000 | 21 | 580 | 1.5 | Cc1cc(-c2c(-c3cccc(C#N)c3)nn3ccc(C(=N)N)nc23)cc(C)n1 [Example 97, 2-(3-Cyanophenyl)-3-(2,6-dimethyl-4-pyridyl)pyrazolo[1,5-a]pyrimidine-5-carboxamidine] | 38
324 | > 1000 | 25 | 350 | 1.6 | Cc1cc(-c2c(-c3cccc(C#N)c3)nn3ccc(C(=O)NC45CC(O)(C4)C5)nc23)cc(C)n1 [Example 92.2] | 17
